Results: patent US6441195B1, “Substituted sulphonylamino(thio) carbonyl compounds” (Bayer Aktiengesellschaft, priority 1995, dated 2002)

Assays:
Format in all cases: in vivo
[1] = test system: Ambrosia; experiment: Pre-emergence test/Greenhouse, Ambrosia; details: after three weeks
How it was run: (§1)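 Emulsifier-formulated compound applied by soil watering ~24 h after sowing; damage scored at three weeks as % of untreated control.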

[2] = test system: weeds; experiment: Pre-emergence test (greenhouse), activity against weeds; details: in words
How it was run: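 Three weeks after treatment, % damage relative to untreated plants is scored, 0% meaning no effect. Seeds in normal soil received, roughly one day post-sowing, an aqueous dilution of an acetone/emulsifier concentrate, with the rate per unit area, not concentration, being the relevant dose.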

[3] = test system: weeds; experiment: Post-emergence test (greenhouse), activity against weeds; details: in words
Experimental: (§2) Solvent: 5 parts by weight of acetone
(§3) Emulsifier: 1 part by weight of alkylaryl polyglycol ether
(§4) To produce a suitable preparation of active compound, 1 part by weight of active compound is mixed with the stated amount of solvent, the stated amount of emulsifier is added and the concentrate is diluted with water to the desired concentration.
(§5) Test plants which have a height of 5-15 cm are sprayed with the preparation of the active compound in such a way as to apply the particular amounts of active compound desired per unit area. The concentration of the spray liquor is chosen so that the particular amounts of active compound desired are applied in 2000 l of water/ha.
(§6) After three weeks, the degree of damage to the plants is rated in % damage in comparison to the development of the untreated control.
(§7) 0%=no action (like untreated control)

[4] = test system: Lolium; experiment: Pre-emergence test/Greenhouse, Lolium; details: after three weeks
How it was run: as §1

[5] = test system: Maize; experiment: Pre-emergence test/Greenhouse, Maize
How it was run: as §1

[6] = test system: Maize; experiment: Post-emergence test/greenhouse, Maize; details: greenhouse, after three weeks
Experimental: as §2, §3, §4, §5, §6, §7

[7] = test system: Sorghum; experiment: Post-emergence test/greenhouse, Sorghum; details: greenhouse, after three weeks
Experimental: as §2, §3, §4, §5, §6, §7

[8] = test system: Lolium; experiment: Post-emergence test/greenhouse, Lolium; details: greenhouse, after three weeks
Experimental: as §2, §3, §4, §5, §6, §7

[9] = test system: Stellaria; experiment: Post-emergence test/greenhouse, Stellaria; details: greenhouse, after three weeks
Experimental: as §2, §3, §4, §5, §6, §7

[10] = test system: Matricaria; experiment: Post-emergence test/greenhouse, Matricaria; details: greenhouse, after three weeks
Experimental: as §2, §3, §4, §5, §6, §7

[11] = test system: Solanum; experiment: Pre-emergence test/Greenhouse, Solanum; details: after three weeks
How it was run: as §1

[12] = test system: Sorghum; experiment: Pre-emergence test/Greenhouse, Sorghum; details: after three weeks
How it was run: as §1

[13] = test system: Digitaria; experiment: Post-emergence test/greenhouse, Digitaria; details: greenhouse, after three weeks
Experimental: as §2, §3, §4, §5, §6, §7

[14] = test system: Amaranthus; experiment: Post-emergence test/greenhouse, Amaranthus; details: greenhouse, after three weeks
Experimental: as §2, §3, §4, §5, §6, §7

[15] = test system: Matricaria; experiment: Pre-emergence test/Greenhouse, Matricaria; details: after three weeks
How it was run: as §1

[16] = test system: Poa; experiment: Pre-emergence test/Greenhouse, Poa; details: after three weeks
How it was run: as §1

[17] = test system: Echinochloa; experiment: Post-emergence test/greenhouse, Echinochloa; details: greenhouse, after three weeks
Experimental: as §2, §3, §4, §5, §6, §7

[18] = test system: Soya beans; experiment: Pre-emergence test/Greenhouse, Soya beans; details: in vivo
How it was run: as §1

[19] = test system: Gallium; experiment: Post-emergence test/greenhouse, Gallium; details: greenhouse, after three weeks
Experimental: as §2, §3, §4, §5, §6, §7

SMILES | activity against weeds [2] | activity against weeds [3] | degree of damage to the plants (% damage vs untreated control), Ambrosia ([1]; 15 g of ai./ha) [%] | degree of damage to the plants (% damage vs untreated control), Lolium ([4]; 15 g of ai./ha) [%] | degree of damage to the plants (% damage vs untreated control), Maize ([5]; in vivo) [%] | degree of damage, Maize ([6]; 30 g of ai./ha) [%] | degree of damage, Sorghum ([7]; 30 g of ai./ha) [%] | degree of damage, Stellaria ([9]; 30 g of ai./ha) [%] | degree of damage, Matricaria ([10]; 30 g of ai./ha) [%] | degree of damage to the plants (% damage vs untreated control), Solanum ([11]; 15 g of ai./ha) [%] | degree of damage to the plants (% damage vs untreated control), Sorghum ([12]; 15 g of ai./ha) [%] | degree of damage, Digitaria ([13]; 30 g of ai./ha) [%] | degree of damage, Amaranthus ([14]; 30 g of ai./ha) [%] | degree of damage to the plants (% damage vs untreated control), Matricaria ([15]; 15 g of ai./ha) [%] | degree of damage to the plants (% damage vs untreated control), Poa ([16]; 15 g of ai./ha) [%] | degree of damage, Echinochloa ([17]; 30 g of ai./ha) [%] | degree of damage, Gallium ([19]; 30 g of ai./ha) [%] | also measured
CCOc1nn(C(=O)NS(=O)(=O)c2c(C)csc2C(=O)OC)c(=O)n1C [Example 1, 5-ethoxy-4-methyl-2-(4-methyl-2-methoxycarbonyl-thien-3-yl-sulphonylaminocarbonyl)-2,4-dihydro-3H-1,2,4-triazol-3-one] | very strong activity against weeds | very strong activity against weeds | – | – | – | – | – | – | – | – | – | – | – | – | – | – | – | degree of damage to the plants (% damage vs untreated control), Ambrosia ([1]; 30 g of ai./ha): 95%; degree of damage to the plants (% damage vs untreated control), Lolium ([4]; 30 g of ai./ha): 95%; degree of damage to the plants (% damage vs untreated control), Maize ([5]; pre-emergence, 30 g of ai./ha, after three weeks): 10%; degree of damage, Maize ([6]; 125 g of ai./ha): 60%; degree of damage, Sorghum ([7]; 125 g of ai./ha): 95%; degree of damage, Lolium ([8]; 125 g of ai./ha): 90%; degree of damage, Stellaria ([9]; 125 g of ai./ha): 100%; degree of damage, Matricaria ([10]; 125 g of ai./ha): 100%; degree of damage to the plants (% damage vs untreated control), Solanum ([11]; 30 g of ai./ha): 95%; degree of damage to the plants (% damage vs untreated control), Sorghum ([12]; 30 g of ai./ha): 90%; degree of damage, Digitaria ([13]; 125 g of ai./ha): 95%; degree of damage, Amaranthus ([14]; 125 g of ai./ha): 100%; degree of damage to the plants (% damage vs untreated control), Matricaria ([15]; 30 g of ai./ha): 95%; degree of damage to the plants (% damage vs untreated control), Poa ([16]; 30 g of ai./ha): 95%; degree of damage, Echinochloa ([17]; 125 g of ai./ha): 95%
CCSc1nn(C(=O)NS(=O)(=O)c2c(C)cccc2C(=O)OC)c(=O)n1C [Example 141] | very strong activity against weeds | very strong activity against weeds | 90 | 90 | 30 | 10 | 90 | 95 | 70 | 90 | 80 | 70 | 100 | 80 | 80 | 90 | 90 | degree of damage to the plants (% damage vs untreated control), Soya beans [18]: 0%
COC(=O)c1scc(C)c1S(=O)(=O)NC(=O)n1nc(OC)n(C)c1=O [Example 31] | very strong activity against weeds | very strong activity against weeds | 95 | 95 | 10 | 5 | 80 | 95 | 100 | 95 | 80 | 95 | 100 | 95 | 95 | 95 | 80 | degree of damage, Lolium ([8]; 30 g of ai./ha): 90%
COCc1nn(C(=O)NS(=O)(=O)c2c(C)csc2C(=O)OC)c(=O)n1C1CC1 [Example 28] | very strong activity against weeds | very strong activity against weeds | – | – | 0 | – | – | – | – | – | – | – | – | – | – | – | – | degree of damage to the plants (% damage vs untreated control), Ambrosia ([1]; 60 g of ai./ha): 95%; degree of damage to the plants (% damage vs untreated control), Lolium ([4]; 60 g of ai./ha): 95%; degree of damage, Maize ([6]; 60 g of ai./ha): 10%; degree of damage, Sorghum ([7]; 60 g of ai./ha): 95%; degree of damage, Lolium ([8]; 60 g of ai./ha): 60%; degree of damage, Stellaria ([9]; 60 g of ai./ha): 100%; degree of damage, Matricaria ([10]; 60 g of ai./ha): 90%; degree of damage to the plants (% damage vs untreated control), Solanum ([11]; 60 g of ai./ha): 95%; degree of damage to the plants (% damage vs untreated control), Sorghum ([12]; 60 g of ai./ha): 95%; degree of damage, Digitaria ([13]; 60 g of ai./ha): 90%; degree of damage, Amaranthus ([14]; 60 g of ai./ha): 100%; degree of damage to the plants (% damage vs untreated control), Matricaria ([15]; 60 g of ai./ha): 95%; degree of damage to the plants (% damage vs untreated control), Poa ([16]; 60 g of ai./ha): 95%; degree of damage, Echinochloa ([17]; 60 g of ai./ha): 80%; degree of damage, Gallium ([19]; 60 g of ai./ha): 80%
